Assay results from patent publication US20090155367A1, “Occlusion of Fallopian Tubes” (priority 2005, published 2009).

What was measured:
[1] = system: beef muscle tissue (fillet mignon); assay: Tissue necrosis with AgNO3 bearing beads placed on beef muscle tissue; parameters: key: +: slight visible pitting of the tissue surface; ++: moderate pitting of tissue surface with slight blackening of the tissue; +++: significant pitting with moderate blackening of the tissue; ++++: severe pitting with complete blackening of the tissue; +++++: severe pitting with complete blackening of the tissue, spreading beyond the point of contact; −−−: no observed necrosis; settings: tissue under bead on beef muscle surface
Source text: The degree of necrosis was rated as follows: slight visible pitting of the tissue surface (+); moderate pitting of tissue surface with slight blackening of the tissue (++); significant pitting with moderate blackening of the tissue (+++); severe pitting with complete blackening of the tissue (++++); severe pitting with complete blackening of the tissue, spreading beyond the point of contact (+++++); and no observed necrosis (−−−)

Fallopian tubes = settings: even when massive tubal necrosis was achieved; cited from earlier work

O=[N+]([O-])[O-].[Ag+] [AgNO3 Crystal, silver nitrate]
Tissue Necrosis (degree of necrosis) ([1]; Time 5 minutes): +++ | Tissue Necrosis (degree of necrosis) ([1]; Time 10 minutes): ++++ | Tissue Necrosis (degree of necrosis) ([1]; Time 15 minutes): +++++ | Tissue Necrosis (degree of necrosis) ([1]; Time 20 minutes): +++++ | Fallopian tube closure after application (Fallopian tubes): a significant proportion of Fallopian tubes remained open
